From patent publication US20260306657A1, “LIPOSOME CONJUGATE TARGETING M2 MACROPHAGE AND USE THEREOF” (HANGZHOU NORMAL UNIVERSITY, priority 2022, published 2026) come the findings set out here.

The test system of one assay is 4T1 breast cancer cells. Nature of the assay: Cytotoxicity on 4T1 breast cancer cells (CCK-8 method). As to conditions: 24 h, CCK-8, n=3. The assay is classed as cell-based. On the procedure:
Cytotoxicity Studies of Tumor-Targeted Liposomes:
(1) The toxicity of ELE to 4T1 breast cancer cells was studied using a CCK-8 method. 4T1 cells (2×10^4 cells/well) were inoculated in a 96-well plate. After culturing for 24 h, the cells were treated with RMPI-1640 media containing ELE, ELE/Lipo, ELE/Lipo-AS1411, and FA-ELE/Lipo-AS1411 (drug concentrations being 10 μg/mL, 20 μg/mL, 40 μg/mL, 80 μg/mL, and 160 μg/mL, respectively) for 24 h. ELE was dissolved and diluted in medium containing 1% 0 ethanol, and untreated cells were used as a control. 100 μL of 10% CCK-8 solution was added into each well and incubated for 2 h. The absorbance at 450 nm was measured using an enzyme-labeled instrument, and the IC50 value of each drug group was calculated and analyzed using Graphpad9.0. A schematic diagram of the cytotoxicity of different concentrations of free ELE, ELE/Lipo, ELE/Lipo-AS1411, and FA-ELE/Lipo-AS1411 on 4T1 cells was shown in FIG. 5, where n=3, x±SD, ** P<0.01, *** P<0.001, **** P<0.0001 (vs. ELE); #P<0.05, ###P<0.001 (vs. ELE/Lipo-AS1411).
(In general: Tetrazolium assays rely on reduction of a dye to a coloured formazan, in cell work by metabolically active cells.)

Another assay has as its system M2 macrophages. The experiment in a line: Cytotoxicity of ELE on M1 and M2 macrophages (CCK-8 method). The format is cell-based. Conditions: 24 h, at 5 concentrations (10-160 μg/mL), * P<0.05, n=3. On the procedure:
(2) The toxicity of ELE on M1 and M2 macrophages was studied using the CCK-8 method. RAW264.7 cells were pre-treated to polarize into M1 and M2 macrophages, and the M1 and M2 macrophages (2×10^5 cells/well) were inoculated in a 96-well plate. After culturing for 24 h, the cells were treated with 100 μL of DMEM high-glucose media containing ELE (drug concentrations being 10 μg/mL, 20 μg/mL, 40 μg/mL, 80 μg/mL, and 160 μg/mL, respectively) for 24 h. ELE was dissolved and diluted in medium containing 1% % ethanol, and untreated cells were used as a control. 100 μL of 10% CCK-8 solution was added into each well and incubated for 2 h. The absorbance at 450 nm was measured using an enzyme-labeled instrument, and the IC 50 values of each group of drugs were calculated and analyzed using Graphpad Prism 9.0. A schematic diagram of the cytotoxicity of different concentrations of ELE on M1 and M2 macrophages is shown in FIG. 6, where n=3, x±SD, * P<0.05, *** P<0.001, **** P<0.0001.

On to Elemene, for which the IC50 (usually the concentration that gives 50% inhibition) with 4T1 breast cancer cells is 921.4 µg/mL. For the same substance, the “toxic effect on M2 macrophages (vs. M1 macrophages)” value in the assay on M2 macrophages is “selective toxic effect on M2 macrophages”.
